Where “and” joins values, the source holds several entries; their conditions need not be identical. Identical values can stand only once. Like-named read-outs stand apart in the source and are kept apart here.

Consider 13 molecules from US20030055065A1, “Tricyclic amide and urea compounds useful for inhibition of G-protein function and for treatment of proliferative diseases” (priority 1993, published 2003).

Experiment [1] concerns the target T1, geranylgeranyl protein transferase (GGPT) I (Rattus norvegicus, UniProt P53610+Q04631).
T1 construct: were partially purified from rat brain by ammonium sulfate fractionation followed by Q-Sepharose
Description: Inhibition of geranylgeranyl protein transferase I (Ras-CVLL as acceptor). In kind it is biochemical. The following applies: for IC50: enzyme inhibition. The source says:
1. In vitro enzyme assays: Inhibition of farnesyl protein transferase and geranylgeranyl protein transferase.
Both farnesyl protein transferase (FPT) and geranylgeranyl protein transferase (GGPT) I were partially purified from rat brain by ammonium sulfate fractionation followed by Q-Sepharose (Pharmacia, Inc.) anion exchange chromatography essentially as described by Yokoyama et al (Yokoyama, K., et al., (1991), A protein geranylgeranyltransferase from bovine brain: Implications for protein prenylation specificity, Proc. Natl. Acad. Sci USA 88: 5302-5306, the disclosure of which is incorporated herein by reference thereto). Human farnesyl protein transferase was also expressed in E. coli, using cDNA clones encoding both the α and β subunits. The methods used were similar to those published (Omer, C. et al., (1993), Characterization of recombinant human farnesyl protein transferase: Cloning, expression, farnesyl diphosphate binding, and functional homology with yeast prenyl-protein transferases, Biochemistry 32:5167-5176). Human farnesyl protein transferase was partially-purified from the soluble protein fraction of E. coli as described above. […] Two forms of val^12-Ha-Ras protein were prepared as substrates for these enzymes, differing in their carboxy terminal sequence. One form terminated in cysteine-valine-leucine-serine (Ras-CVLS) the other in cystein-valine-leucine-leucine (Ras-CVLL). Ras-CVLS is a substrate for the farnesyl protein transferase while Ras-CVLL is a substrate for geranylgeranyl protein transferase I. The cDNAs encoding these proteins were constructed so that the proteins contain an amino-terminal extension of 6 histidine residues. Both proteins were expressed in Escherichia coli and purified using metal chelate affinity chromatography. The radiolabelled isoprenyl pyrophosphate substrates, [^3H]farnesyl pyrophosphate and [3H]geranylgeranyl pyrophosphate, were purchased from DuPont/New England Nuclear.
The geranylgeranyl protein transferase I assay was essentially identical to the farnesyl protein transferase assay described above, with two exceptions: [^3H]geranylgeranylpyrophosphate replaced farnesyl pyrophosphate as the isoprenoid donor and Ras-CVLL was the protein acceptor.

Experiment [2] has as its system T24-BAG4 human bladder carcinoma cells expressing an activated H-ras gene. Description: Cell Mat Assay: tumor cell colony inhibition (tIC50). In kind it is cell-based. The following applies: inhibition of tumor cell growth. The procedure, abridged:
(§1)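 Serial compound dilutions added 24 h after planting T24-BAG4 cells onto a mat of normal cells, then 14 d colony growth; monolayers glutaraldehyde-fixed and tumor cells X-Gal stained. tIC50 and mIC50 from microscope counts of colonies, cells per colony and mat cell density.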

Experiment [3] has as its system Normal human HEPM fibroblasts. Description: Cell Mat Assay: density of mat cells (mIC50). It is filed as cell-based. An outline of the steps: as §1
For experiment [4], the target named is T2, farnesyl protein transferase (FPT), partially purified from rat brain (Rattus norvegicus, UniProt Q02293+Q04631).
T2 construct: were partially purified from rat brain by ammonium sulfate fractionation followed by Q-Sepharose
Description: Inhibition of farnesyl protein transferase (transfer of [3H]farnesyl to Ras-CVLS). It is filed as biochemical. The following applies: read-out: FPT IC50. The procedure, abridged: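 Partially purified farnesyl protein transferase with His6-tagged val12-Ha-Ras-CVLS substrate and [3H]farnesyl pyrophosphate, 30 min at room temperature. Stopped with SDS/TCA, precipitated Ras collected on GF/C filters; percent inhibition relative to DMSO vehicle control.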

For experiment [5], the system named is Ras-CVLS processing in COS monkey kidney cells. In words: COS cell assay: Ras-CVLS processing (Western blot). In kind it is cell-based. The following applies: COS cells; for Inhibition of Ras Processing at the concentration in parentheses: (5) μM; for IC50: Primates, COS, read-out: Inhibition of Ras Processing IC50. The procedure, abridged:
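COS cells electroporated with Ras-CVLS (farnesyl transferase substrate) cDNA, with drug-containing fresh medium added at 24 h and cells examined at 48 h. TCA-precipitated cellular protein was resolved by SDS gel and immunoblotted with anti-p21 Ras monoclonal and HRP anti-rat IgG to monitor Ras processing.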
For orientation: A western blot detects proteins with antibodies after separation by electrophoresis.

The mark [6] stands for this setting: Ras-CVLS farnesylation, partially purified rat brain FPT.

T2 sequence (Q02293 whole entry, one chain of several): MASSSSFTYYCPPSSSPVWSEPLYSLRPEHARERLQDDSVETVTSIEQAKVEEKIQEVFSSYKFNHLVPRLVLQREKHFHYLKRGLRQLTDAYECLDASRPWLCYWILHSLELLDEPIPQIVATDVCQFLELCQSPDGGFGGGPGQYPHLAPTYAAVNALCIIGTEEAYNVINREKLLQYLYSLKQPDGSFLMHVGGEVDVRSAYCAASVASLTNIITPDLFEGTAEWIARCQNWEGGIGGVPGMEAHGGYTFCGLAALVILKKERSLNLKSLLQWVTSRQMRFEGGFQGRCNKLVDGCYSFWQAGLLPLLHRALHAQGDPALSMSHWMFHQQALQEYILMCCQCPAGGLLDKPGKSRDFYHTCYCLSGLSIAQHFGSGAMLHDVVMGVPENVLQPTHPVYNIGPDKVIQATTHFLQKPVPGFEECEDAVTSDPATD
T1 sequence (P53610 whole entry, one chain of several): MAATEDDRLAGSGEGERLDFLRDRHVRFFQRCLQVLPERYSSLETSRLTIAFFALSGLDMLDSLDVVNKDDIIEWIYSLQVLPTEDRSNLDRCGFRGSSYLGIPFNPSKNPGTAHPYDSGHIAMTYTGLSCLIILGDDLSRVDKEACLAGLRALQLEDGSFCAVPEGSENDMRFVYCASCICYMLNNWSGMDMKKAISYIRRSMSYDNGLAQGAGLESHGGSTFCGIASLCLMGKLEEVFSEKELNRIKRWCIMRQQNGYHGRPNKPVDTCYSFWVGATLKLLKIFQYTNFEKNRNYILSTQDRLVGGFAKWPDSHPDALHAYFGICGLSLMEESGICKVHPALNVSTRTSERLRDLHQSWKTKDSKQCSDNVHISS

Take `O=C(CN1C(=O)c2ccccc2C1=O)N1CCN(C2c3ccc(Cl)cc3CCc3cccnc32)CC1` (centres unmarked) [Example 76]: the IC50 in experiment [1] was more than 50 µM; in experiment [2] (Homo sapiens), more than 50 µM; in experiment [3] (Homo sapiens, Fibroblast), more than 50 µM.
Regarding `O=C(Cc1ccncc1)N1CCC(=C2c3ccc(Cl)cc3CCc3cc(Cl)cnc32)CC1` [Example 180], the IC50 in experiment [4] (setting [6]) is 0.04 µM; in experiment [1], more than 42 µM; in experiment [2] (Homo sapiens), 12.5 µM; in experiment [2], 18 µM; in experiment [3], more than 50 µM; in experiment [3] (Homo sapiens, Fibroblast) it was 50 µM.
With `CO[C@@](C(=O)N1CCC(=C2c3ccc(Cl)cc3CCc3cccnc32)CC1)(c1ccccc1)C(F)(F)F` [Example 290], the IC50 in experiment [4] (setting [6]) was 3.8 µM and 2.55 µM; in experiment [1], more than 38 µM; in experiment [2] (Homo sapiens), 12.5 µM; in experiment [2] it was 6.25 µM and 8 µM; in experiment [3] (Homo sapiens, Fibroblast) it was more than 50 µM.
For `CC(C)(C)c1cnc2c(c1)CCc1cc(Cl)ccc1C2=C1CCN(C(=O)Cc2cccnc2)CC1` [Example 304], the concentration for half-maximal inhibition (IC50) is 2.63 µM in experiment [4] (setting [6]), more than 40 µM in experiment [1] and more than 50 µM in experiment [3].
In the case of `O=C(Nc1cccnc1)N1CCN(C2c3ccc(Cl)cc3CCc3cc(Br)cnc32)CC1` (centres unmarked) [Example 354], the IC50 in experiment [4] (setting [6]) was 0.21 µM; in experiment [1], 1000 µM; in experiment [2] (Homo sapiens), 6.25 µM; in experiment [3] (Homo sapiens, Fibroblast) it was not below 25 µM.
On to `CN1CCC(CC(=O)N2CCC(C3c4ccc(Cl)cc4C=Cc4cc(Br)cnc43)CC2)CC1` (centres unmarked) [Example 400-B], for which the IC50 in experiment [4] (setting [6]) is 0.068 µM; in experiment [4] (enzyme inhibition), 0.068 µM; in experiment [1], more than 38 µM; in experiment [2] (Homo sapiens) it was less than 1.6 µM.
On to `O=C(Cc1ccncc1)N1CCC(C2c3ccc(Cl)cc3CCc3cc(Br)cnc32)CC1` (centres unmarked) [Example 400-E], for which the concentration for half-maximal inhibition (IC50) in experiment [4] (setting [6]) is 0.04 µM; in experiment [4] (enzyme inhibition) it was 0.04 µM; in experiment [2] (Homo sapiens), less than 1.6 µM; in experiment [3] (Homo sapiens, Fibroblast), 18 µM. Moreover, the “GGPT inhibition at the concentration in parentheses” value (“GGPT inhibition” for short) in experiment [1] ((38) μM) is recorded as 30 (38).
In the case of `O=C(Cc1cc[n+]([O-])cc1)N1CCC(C2c3ccc(Cl)cc3CCc3cc(Br)cnc32)CC1` (centres unmarked) [Example 400-F], the IC50 was 0.036 µM in experiment [4] (setting [6]); 0.036 µM in experiment [4] (enzyme inhibition); less than 1.6 µM in experiment [2] (Homo sapiens); more than 25 µM in experiment [3] (Homo sapiens, Fibroblast). In addition, the “GGPT inhibition” value in experiment [1] ((36) μM) was 0 (36).
For `CN1CCC(CC(=O)N2CCC(=C3c4ccc(Cl)cc4CCc4cc(Br)cnc43)CC2)CC1` [Example 400-H], the concentration for half-maximal inhibition (IC50) in experiment [4] (setting [6]) was determined as 0.24 µM; in experiment [4] (enzyme inhibition), 0.24 µM; in experiment [1], 1000 µM; in experiment [5], 2.5 µM. Also, in experiment [1] ((36) μM), the “GGPT inhibition” value was 0 (36). For the same molecule, the “Inhibition of Ras Processing at the concentration in parentheses” value in experiment [5] is 100 (5).
On to `CN1CCCC(CC(=O)N2CCC(=C3c4ccc(Cl)cc4CCc4cc(Br)cnc43)CC2)C1` (centres unmarked) [Example 400-K], for which the IC50 is 0.21 µM in experiment [4] (setting [6]), 0.21 µM in experiment [4] (enzyme inhibition), 1000 µM in experiment [1] and 2.2 µM in experiment [5]. In addition, the “GGPT inhibition” value in experiment [1] ((37) μM) is reported as 0 (37). In addition, the “Inhibition of Ras Processing at the concentration in parentheses” value in experiment [5] is recorded as 100 (5).
Take `O=C(Cc1ccncc1)N1CCC(=C2c3ccc(Cl)cc3CCc3cc(I)cnc32)CC1` [Example 400]: the IC50 in experiment [4] (setting [6]) was 0.068 µM; in experiment [4] (enzyme inhibition), 0.068 µM; in experiment [2] (Homo sapiens), 1.6 µM; in experiment [3] (Homo sapiens, Fibroblast), more than 25 µM. Moreover, the “GGPT inhibition” value in experiment [1] ((36) μM) is given as 29 (36).
On to `O=C(Cc1cc[n+]([O-])cc1)N1CCC(=C2c3ccc(Cl)cc3CCc3cc(I)cnc32)CC1` [Example 401], for which the IC50 was 0.063 µM and 0.08 µM in experiment [4] (setting [6]); 0.063 µM and 0.08 µM in experiment [4] (enzyme inhibition); 1000 µM in experiment [1]; less than 1.6 µM in experiment [2] (Homo sapiens); more than 25 µM in experiment [3] (Homo sapiens, Fibroblast). Besides, in experiment [1] ((34) μM), the “GGPT inhibition” value was 7 (34).
As for `O=C(Cc1cc[n+]([O-])cc1)N1CCC(=C2c3ccc(Cl)cc3C=Cc3cc(Br)cnc32)CC1` [Example 417-B], the IC50 was 0.14 µM in experiment [4] (enzyme inhibition); less than 1.6 µM in experiment [2] (Homo sapiens); more than 25 µM in experiment [3] (Homo sapiens, Fibroblast). In addition, the “GGPT inhibition” value in experiment [1] ((32) μM) is recorded as 15 (32).

The IC50 is the concentration that inhibits the measured activity by half.
